According to patent US7435837B2, “Dihydrobenzofuranyl alkanamine derivatives and methods for using same” (Wyeth, priority 2003, dated 2008):

These compounds were tested against T1, human 5-hydroxytryptamine-2C (h5-HT2C) receptor (Homo sapiens, UniProt P28335) (assay: [125I]DOI binding to membranes of CHO cells expressing the human 5-HT2C receptor). Conditions: [125I]DOI radioligand, CHO cell membranes, room temperature 60 min; read-out: 5-HT2C Affinity Ki.
T1 construct: expressed in transfected cells; host or cells: CHO (Chinese Hamster Ovary) cells; membranes
T1 sequence (P28335 33-458): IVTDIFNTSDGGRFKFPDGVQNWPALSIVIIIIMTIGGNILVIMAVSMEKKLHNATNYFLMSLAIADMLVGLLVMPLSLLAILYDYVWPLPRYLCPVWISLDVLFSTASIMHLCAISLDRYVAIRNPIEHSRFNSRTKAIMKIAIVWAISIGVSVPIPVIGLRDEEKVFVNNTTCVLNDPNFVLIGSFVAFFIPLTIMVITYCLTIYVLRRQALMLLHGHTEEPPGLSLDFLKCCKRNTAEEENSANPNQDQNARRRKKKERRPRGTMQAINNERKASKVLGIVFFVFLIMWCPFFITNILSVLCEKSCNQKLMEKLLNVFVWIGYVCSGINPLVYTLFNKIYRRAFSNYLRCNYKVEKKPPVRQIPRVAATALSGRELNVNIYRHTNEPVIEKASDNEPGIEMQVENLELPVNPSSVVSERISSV

Compound | Ki [nM]
NCC1Cc2cc(Cl)cc(-c3ccsc3)c2O1 (racemic) [Example 90, (±)-(5-chloro-7-thien-3-yl-2,3-dihydro-1-benzofuran-2-yl)methylamine] | 8
COc1cc2c(c(C(C)(C)C)c1)OC(CN)C2 (single isomer, unassigned; (+)) [Example 116, (+)-1-(7-tert-butyl-5-methoxy-2,3-dihydro-1-benzofuran-2-yl)methanamine] | 527
Cc1cc(C)cc(Nc2cccc3c2OC(CN)C3)c1 (racemic) [Example 192, (±)-N-[2-(aminomethyl)-2,3-dihydro-1-benzofuran-7-yl]-N-(3,5-dimethylphenyl)amine] | 142
NCC1Cc2cccc(Nc3cccc(Cl)c3)c2O1 (racemic) [Example 190, (±)-N-[2-(aminomethyl)-2,3-dihydro-1-benzofuran-7-yl]-N-(3-chlorophenyl)amine] | 186
Cc1ccc(Nc2cccc3c2OC(CN)C3)cc1C (racemic) [Example 181, (±)-N-[2-(aminomethyl)-2,3-dihydro-1-benzofuran-7-yl]-N-(3,4-dimethylphenyl)amine] | 146
Cc1ccccc1-c1cccc2c1CC(CN)O2 (single isomer, unassigned; (-)) [Example 6, (−)-1-[4-(2-methylphenyl)-2,3-dihydro-1-benzofuran-2-yl]methanamine] | 84
NCC1Cc2cccc(Nc3cccc(OC(F)(F)F)c3)c2O1 (racemic) [Example 187, (±)-N-[2-(aminomethyl)-2,3-dihydro-1-benzofuran-7-yl]-N-(3-trifluoromethoxy)phenyl]amine] | 247
COc1cc2c(c(C(C)(C)C)c1)OC(CN)C2 (racemic) [Example 13, (±)-(7-tert-butyl-5-methoxy-2,3-dihydro-1-benzofuran-2-yl)methylamine] | 133
NCC1Cc2cccc(CCc3ccccc3)c2O1 (racemic) [Example 120, (±)-1-[7-(2-phenylethyl)-2,3-dihydro-1-benzofuran-2-yl]methanamine] | 128
COc1ccc(Nc2cccc3c2OC(CN)C3)cc1C (racemic) [Example 185, (±)-N-[2-(aminomethyl)-2,3-dihydro-1-benzofuran-7-yl]-N-(4-methoxy-3-methylphenyl)amine] | 159
COc1cc(Cl)cc2c1OC(CN)C2 (racemic) [Example 111, (±)-1-(5-chloro-7-methoxy-2,3-dihydro-1-benzofuran-2-yl)methanamine] | 26
NCC1Cc2cc(F)cc(-c3cncnc3)c2O1 (racemic) [Example 210, (±)-[(5-fluoro-7-pyrimidin-5-yl-2,3-dihydro-1-benzofuran-2-yl)methyl]amine] | 36
COc1cc2c(c(C(C)(C)C)c1)OC(CN)C2 (single isomer, unassigned; (-)) [Example 115, (−)-1-(7-tert-butyl-5-methoxy-2,3-dihydro-1-benzofuran-2-yl)methanamine] | 79
CC1(CN)Cc2cc(Cl)cc(-c3ccccc3)c2O1 (racemic) [Example 112, (±)-1-(5-chloro-2-methyl-7-phenyl-2,3-dihydro-1-benzofuran-2-yl)methanamine] | 55
COc1ccc(Nc2cccc3c2OC(CN)C3)cc1 (racemic) [Example 176, (±)-N-[2-(aminomethyl)-2,3-dihydro-1-benzofuran-7-yl]-N-(4-methoxyphenyl)amine] | 488

Next, values leading:

Ki [nM] | Compound
1050 | CNCC1Cc2cc(-c3cccc(Cl)c3)cc(F)c2O1 (racemic) [Example 534, (±)-{7-fluoro-5-[3-chlorophenyl]-2,3-dihydro-1-benzofuran-2-yl}methyl)methylamine]
60 | CNCC1Cc2cc(OC)cc(-c3cc(Cl)ccc3OC)c2O1 (racemic) [Example 502, (±)-{[7-(5-chloro-2-methoxyphenyl)-5-methoxy-2,3-dihydro-1-benzofuran-2-yl]methyl}methylamine]
71 | Cc1ccccc1-c1cc(F)c2c(c1)CC(CN)O2 (racemic) [Example 375, (±)-{[7-fluoro-5-(2-methylphenyl)-2,3-dihydro-1-benzofuran-2-yl]methyl}amine]
923 | NCC1Cc2cc(-c3cccc(F)c3)cc(F)c2O1 (racemic) [Example 381, (±)-{[7-fluoro-5-(3-fluorophenyl)-2,3-dihydro-1-benzofuran-2-yl]methyl}amine]
63 | COc1cccc(-c2cc(F)cc3c2OC(CN)C3)c1 (racemic) [Example 197, (±)-{[5-fluoro-7-(3-methoxyphenyl)-2,3-dihydro-1-benzofuran-2-yl]methyl}amine]
11 | NCC1Cc2cc(Cl)cc(-c3ccccc3)c2O1 (racemic) [Example 84, (±)-1-(5-chloro-7-phenyl-2,3-dihydro-1-benzofuran-2-yl)methanamine]
320 | NCC1Cc2cc(C(F)(F)F)cc(-c3ccc(Cl)cc3)c2O1 (racemic) [Example 325, (±)-{[5-(trifluoromethyl)-7-(4-chlorophenyl)-2,3-dihydro-1-benzofuran-2-yl]methyl}amine]
83 | NCC1Cc2cc(C(F)(F)F)cc(-c3cccc(F)c3)c2O1 (racemic) [Example 319, (±)-{[5-(trifluoromethyl)-7-(3-fluorophenyl)-2,3-dihydro-1-benzofuran-2-yl]methyl}amine]
409 | CNCC1Cc2cc(-c3ccccc3C(F)(F)F)cc(F)c2O1 (racemic) [Example 531, (±)-{7-fluoro-5-[2-(trifluoromethyl)phenyl]-2,3-dihydro-1-benzofuran-2-yl}methyl)methylamine]
1620 | COc1ccc(-c2cc(F)c3c(c2)CC(CN)O3)cc1 (racemic) [Example 389, (±)-{[7-fluoro-5-(4-methoxyphenyl)-2,3-dihydro-1-benzofuran-2-yl]methyl}amine]
1.6 | Cc1ccccc1-c1c(F)ccc2c1OC(CN)C2 (single isomer, unassigned; (-)) [Example 397, (−)-{[6-fluoro-7-(2-methylphenyl)-2,3-dihydro-1-benzofuran-2-yl]methyl}amine]
171 | NCC1Cc2cccc(Nc3cc(F)cc(F)c3)c2O1 (racemic) [Example 186, (±)-N-[2-(aminomethyl)-2,3-dihydro-1-benzofuran-7-yl]-N-(3,5-difluorophenyl)amine]
1120 | CNCC1Cc2cc(-c3cccc(C(F)(F)F)c3)cc(F)c2O1 (racemic) [Example 536, (±)-{7-fluoro-5-[3-(trifluoromethyl)phenyl]-2,3-dihydro-1-benzofuran-2-yl}methyl)methylamine]
1.7 | Cc1cc2c(c(-c3c(Cl)cccc3Cl)c1)OC(CN)C2 (single isomer, unassigned; (+)) [Example 304, (+)-{[7-(2,6-dichlorophenyl)-5-methyl-2,3-dihydro-1-benzofuran-2-yl]methyl}amine]
385 | NCC1Cc2cc(-c3ccccc3)cc(-c3cc(Cl)ccc3Cl)c2O1 (racemic) [Example 355, (±)-{[7-(2,5-dichlorophenyl)-5-phenyl-2,3-dihydro-1-benzofuran-2-yl]methyl}amine]
616 | CNCC1Cc2cc(-c3ccccc3Cl)cc(F)c2O1 (racemic) [Example 529, (±)-{[7-fluoro-5-(2-chlorophenyl)-2,3-dihydro-1-benzofuran-2-yl]methyl}methylamine]
61 | CNCC1Cc2cc(C(F)(F)F)cc(-c3cc(F)ccc3F)c2O1 (racemic) [Example 523, (±)-N-methyl-1-[7-(2,5-difluorophenyl)-5-(trifluoromethyl)-2,3-dihydro-1-benzofuran-2-yl]methanamine]
3350 | CNCC1Cc2cc(-c3ccccc3OC)cc(F)c2O1 (racemic) [Example 532, (±)-{7-fluoro-5-[2-methoxyphenyl]-2,3-dihydro-1-benzofuran-2-yl}methyl)methylamine]
88 | NCC1Cc2cc(C(F)(F)F)cc(-c3cccc(Cl)c3Cl)c2O1 (racemic) [Example 330, (±)-{[7-(2,3-dichlorophenyl)-5-(trifluoromethyl)-2,3-dihydro-1-benzofuran-2-yl]methyl}amine]
529 | NCC1Cc2cc(-c3ccccc3)cc(-c3ccccc3F)c2O1 (racemic) [Example 348, (±)-{[7-(2-fluorophenyl)-5-phenyl-2,3-dihydro-1-benzofuran-2-yl]methyl}amine]
2.3 | CCNC[C@H]1Cc2cc(F)cc(-c3c(Cl)cccc3Cl)c2O1 [Example 546, (R)-[7-(2,6-dichloro-phenyl)-5-fluoro-2,3-dihydro-benzofuran-2-ylmethyl]ethylamine]
760 | NCC1Cc2cc(-c3ccccc3)cc(-c3cccc(F)c3)c2O1 (racemic) [Example 349, (±)-{[7-(3-fluorophenyl)-5-phenyl-2,3-dihydro-1-benzofuran-2-yl]methyl}amine]
87 | Cc1ccccc1-c1cc(-c2ccccc2)cc2c1OC(CN)C2 (racemic) [Example 351, (±)-{[7-(2-methylphenyl)-5-phenyl-2,3-dihydro-1-benzofuran-2-yl]methyl}amine]
246 | CNCC1Cc2cc(C(F)(F)F)cc(-c3cccc(F)c3F)c2O1 (racemic) [Example 521, (±)-N-methyl-1-[7-(2,3-difluorophenyl)-5-(trifluoromethyl)-2,3-dihydro-1-benzofuran-2-yl]methanamine]

Same assay, conditions: reference compounds; 95% confidence interval in parentheses; [125I]DOI radioligand; read-out: Ki

Compound | Ki [nM]
CSc1ccc2c(c1)C(N1CCN(C)CC1)Cc1ccccc1S2 (stereo not shown) [Methiothepin, reference compound] | 4.6
